Laboratory results from US20250057928A1, “VACCINE COMPOSITION FOR INDUCING ANTI-IL-23 ANTIBODY” (OSAKA UNIVERSITY, priority 2021, published 2025).
Where no end group is shown, it is not given here.

How the values were obtained:
epitope peptide = assay: Antibody titer (GMT) of serum of mice administered AJP001 conjugated peptide, ELISA; format: in vivo, mouse; settings: BALB/c mice, no adjuvant; for antibody titer (GMT) over time: 1 mg/body intradermal 3 times at two-week intervals, blood every 2 weeks until 8 weeks
Protocol: AJP001 conjugated peptide having one of the B cell epitope sequences of SEQ ID NOs: 1-5 was dissolved in physiological saline and intradermally administered twice to BALB/c mice (female, 6-week-old, N=5-6) at 0.5 mg/body at 2-week intervals. Blood was collected before administration and 5 weeks after the initial administration, and the antibody titer against each AJP001 conjugated peptide and the binding ability to recombinant mouse IL-23 protein (rmIL-23) were measured by the ELISA method. Specifically, a 96-well plate immobilized with an epitope peptide dissolved at 10 μg/mL in carbonate buffer was blocked with 5% skim milk/PBS, and then serum serially diluted with 5% skim milk/PBS was added, and the mixture was left standing at 4° C. overnight. After washing the wells with PBS-T, HRP-labeled anti-mouse IgG antibody (GE Healthcare) diluted with 5% skim milk/PBS was added and the mixture was shaken at room temperature for 3 hr. After washing the wells with PBS-T, TMB solution (SIGMA) was added, the wells were allowed to stand for 30 min in the dark, the reaction was stopped by adding 0.5M H2SO4, and the absorbance at 450 nm was measured using a plate reader. The serum dilution rate that gave 1/2 (OD=1.75) of the maximum absorbance was defined as the antibody titer, and the geometric mean titer: GMT was calculated from the individual values. Binding to IL-23 protein was measured by the ELISA method in the same manner as the antibody titer, using rmIL-23 (Antibodies-online GmbH) as the solid-phased antigen and goat serum for blocking.
AJP001 conjugated peptide (SEQ ID NO: 2) was dissolved in physiological saline and intradermally administered to BALB/c mice (female, 6-week-old, N=6) at 1 mg/body 3 times at two-week intervals, and blood was collected every 2 weeks until 8 weeks. The antibody titer (GMT) of all the collected sera and the binding ability to rmIL-23 of the serum at the time point of 6 weeks were measured by the ELISA method (same method as in Example 1). The antibody titer and the binding of the induced antibody to rmIL-23 at each time point are shown in FIGS. 2 (a) and (b), respectively.
AJP001 conjugated peptide (SEQ ID NOs: 6-37) was dissolved in physiological saline, mixed with an equal amount of 2% Alhydrogel (invivogen), and this was intradermally administered to BALB/c mice (female, 6-week-old, N=5-6) at 0.5 mg/body 3 times at two-week intervals. Blood was collected before administration and at the time point of 6 weeks after initial administration, and the antibody titer (GMT) to each epitope sequence and binding ability to recombinant human IL-23 protein (rhIL-23) (Peprotech) were measured by the ELISA method (same method as in Example 1). The binding to rhIL-23 was evaluated by a binding ratio to normal serum by calculating the ratio of the absorbance of a well added with normal mouse serum to the absorbance of a well added with antiserum derived from a mouse administered with each AJP001 conjugated peptide (SEQ ID NOs: 6-37). In addition, the neutralization activity of mouse antiserum was evaluated using an action on IL-17 production in rhIL-23 stimulated mouse splenocyte as an index. The spleen of normal BALB/c mouse (female, 5-week-old, N=3) was triturated using a syringe barrel and a cell strainer and washed with and suspended in HBSS (−). Erythrocytes were then removed using ACK Buffer (Thermo fisher scientific), and splenocytes were isolated. The splenocytes were prepared to 2.5×10^6 cells/mL with 10% FBS/1% penicillin/streptomycin/4 ng/mL rmIL-2-containing RPMI1640 medium (culture medium), and seeded in a 96 well plate at 100 μl/well. The antiserum (final concentration 15-fold) of the mice administered with each AJP001 conjugated peptide and rhIL-23 (final concentration 10 ng/ml) were added to the culture medium, reacted at 37° C. for 2 hr, added at 100 μL/well to a 96-well plate seeded with splenocytes, and cultured for 3 days in a 37° C./5% CO2 incubator. […]

splenocytes = assay: ELISPOT assay for T cell activation (IFN-γ, IL-4) in splenocytes of administered mice; format: cell-based, mouse; settings: splenocytes 7 weeks after first administration, stimulated with 10 μg/mL AJP001 alone or 10 μg/mL AJP001 conjugated peptide
Protocol: In addition, ELISPOT assay was performed to evaluate T cell activation. AJP001 conjugated peptide (SEQ ID NO: 2) or physiological saline was administered three times at two-week intervals to BALB/c mice (female, 6-week-old, N=3-4), and the spleen was collected 7 weeks after the first administration. The collected spleen was triturated using a syringe barrel and a cell strainer. This was washed with and suspended in HBSS (−), erythrocytes were removed using ACK Buffer (Thermo fisher scientific), and splenocytes were isolated. Using Mouse IFN-γ ELISpot assay kit and Mouse IL-4 ELISpot assay kit (R&D systems), the cells were prepared to 2.5×10^6 cells/mL with 10% FBS/1% penicillin/streptomycin/4 ng/mL rmIL-2-containing RPMI1640 medium (culture medium), and seeded at 100 μL/well on the 96-well plate of which each capture antibody was immobilized. Splenocytes were stimulated by adding (1) medium alone, (2) 10 μg/mL T cell antigen AJP001 (SEQ ID NO: 38) alone, (3) 10 μg/mL AJP001 conjugated peptide (SEQ ID NO: 2), or (4) 100 ng/mL PMA/ionomycin (PMA/IM, Sigma) to each well. Stimulation was performed for 2 days in a […]. Then, a detection antibody was added and, after washing, a colorimetric reaction was performed. The stained cells were measured with a microscope. The number of IFN-γ and IL-4 positive cells was calculated as the number of cells per 10^6 cell number (SFC/10^6 cells). In FIG. 2, “*” means significant (P<0.05).
In addition, AJP001 conjugated peptide (SEQ ID NO: 6) or physiological saline was administered three times at two-week intervals to BALB/c mouse (female, 6-week-old, N=3-4), and the spleen was collected 7 weeks after the first administration. The collected spleen was subjected to ELISPOT assay using Mouse IFN-γ ELISpot assay kit and Mouse IL-4 ELISpot assay kit (R&D systems).

“SEQ ID NO 2: AJP001-Ahx-B cell epitope peptide conjugate; epitope SSSQQWQR (mouse 152-159) (not fully specified (N-terminus); listed as Mus musculus)” was tested, and the antibody titer (epitope peptide; 0.5 mg/body intradermal twice at 2-week intervals, 5 weeks after initial administration) was “significant increase”, the “antibody titer (GMT) over time” value (epitope peptide) was “increased from the 2nd week and persisted until the 8th week” and the “number of IFN-γ positive cells” value (splenocytes) was “increase”. For the same substance, the “number of IL-4 positive cells” value (splenocytes) was “increase”.

For “SEQ ID NO 6: AJP001-Ahx-B cell epitope peptide conjugate; epitope SPSQPWQR (human 151-158) (not fully specified (N-terminus); listed as Homo sapiens)”, the “antibody titer (GMT) over time” value (epitope peptide) was “increased from the 2nd week and persisted until the 8th week”, the “number of IFN-γ positive cells” value (splenocytes) was “increase” and the “number of IL-4 positive cells” value (splenocytes) was “increase”.
